Tested on: Danio rerio embryos
Test: Danio rerio escape response (neurotoxicity) assay, dechorionated embryos
Assay type: in vivo
Conditions: for Survived (embryos of 4): dechorionated
Procedure: Danio rerio escape response assay. 24 hours past fertilization embryos were dechorionated and transferred into 96‐well plates containing 198 μL of E3 media at 26 °C. […] Incubation times were 24 h, 48 h and 72 h. Survival of the embryos was determined by visual analysis of heart‐beat. For recording the touch evoked escape response, embryos were transferred to a microscopy slide with cavity that is placed on a SL‐300 LED Soft Light (Dörr, Neu‐Ulm, Germany) under a MotionBlitz EoSens mini1‐1 MC1370 high speed camera (Mikrotron, Unterschleißheim, Germany, Figure S18). An escape response was triggered by a touch stimulus at the trunk of embryos using a small sewing needle, which is slightly blunted. For each embryo, a maximum of 50 stimuli was applied. […] No escape response was determined if only one embryo was alive at 96 hpf. Movement was recorded at 96 hpf at 500 frames per second for 3 seconds using the MotionBlitzDirector 2 software. Determination of the amplitude α defined by the body angle spanned between the head, yolk and tail using a MATLAB‐based software tool and plotted using GraphPad Prism 7.02.

[1] = Danio rerio (zebrafish) embryos, in vivo
[2] = Danio rerio (zebrafish) embryos, in vivo, 24 h, 25 μM
[3] = Danio rerio (zebrafish) embryos, in vivo, 24 h, 50 µM
[4] = Danio rerio (zebrafish) embryos, in vivo, 48 h, 25 μM
[5] = Danio rerio, in vivo, 24 h, 25 µM
[6] = Danio rerio, in vivo, 24 h, 50 µM
[7] = Danio rerio, in vivo, 48 h, 25 µM

Cc1cc(C)c(Oc2ccccc2)cc1NC(=O)C(=O)[C@H](CC(C)C)NC(=O)[C@H](CC(C)C)NC(=O)[C@H](CC(C)C)NC(=O)c1cc(Cl)ccc1Cl [Compound 27, 2,5‐Dichloro‐N‐((S)‐1‐(((S)‐1‐(((S)‐1‐((2,4‐dimethyl‐5‐phenoxyphenyl)amino)‐5‐methyl‐1,2‐dioxo‐hexan‐3‐yl)amino)‐4‐methyl‐1‐oxopentan‐2‐yl)amino)‐4‐methyl‐1‐oxopentan‐2‐yl)benzamide]
Fold-response [1]: 29 | Relative reflexes / Stimuli, Mean [1]: 0,81 | Number of movements per 100 ms, Difference between means [2]: 0,4767 ± 0,4422 | Reflex Duration [2]: 295,3 ± 28,5 ms | Relative reflexes / Stimuli [2]: 1,000 | mean reflexes per stimuli [2]: 100% | C-Bend Duration [3]: 19,2 ± 2,2 ms | Number of movements per 100 ms, Difference between means [3]: 0,4019 ± 0,4349 | Number of total movements, Difference between means [3]: 16,56 ± 4,371 | Relative reflexes / Stimuli [3]: 1,000 | mean reflexes per stimuli [3]: 100% | Number of movements per 100 ms, Difference between means [4]: 0,545 ± 0,4127 | Reflex Duration [4]: 403,6 ± 30,9 ms | Relative reflexes / Stimuli [4]: 0,545 | mean reflexes per stimuli [4]: 55% | C-Bend Amplitude, Difference between means [5]: - 2,833 ± 19,93 | C-Bend Duration [5]: 14 ± 0,8165 ms | C-Bend duration, Difference between means [5]: -5,667 ± 1,826 | Number of total movements, Difference between means [5]: - 2,611 ± 3,6 | Reflex Duration [5]: 295,3 ± 28,53 ms | Reflex Duration, Difference between means [5]: - 95,33 ± 66,93 | C-Bend Amplitude, Difference between means [6]: - 7,333 ± 15,18 | C-Bend Duration [6]: 19,17 ± 2,212 ms | C-Bend duration, Difference between means [6]: - 0,5 ± 2,458 | Reflex Duration [6]: 799 ± 91,81 ms | Reflex Duration, Difference between means [6]: 408,3 ± 96,75 | C-Bend Amplitude, Difference between means [7]: - 9,167 ± 17,34 | C-Bend Duration [7]: 15,56 ± 0,5031 ms | C-Bend duration, Difference between means [7]: -4,111 ± 1,464 | Number of total movements, Difference between means [7]: 1,889 ± 3,151 | Reflex Duration [7]: 403,6 ± 30,92 ms | Reflex Duration, Difference between means [7]: 12,89 ± 59,4 | overall survival at low doses (dechorionated embryos): 58% | Survived (embryos of 4) (25 µM, 24 h): 2 | Survived (embryos of 4) (25 µM, 48 h): 2 | Survived (embryos of 4) (50 µM, 24 h): 3

Reference: paper PMC6916368, “Cell‐Based Optimization of Covalent Reversible Ketoamide Inhibitors Bridging the Unprimed to the Primed Site of the Proteasome β5 Subunit” (Chemmedchem, 2019)
